Test results taken from article PMC8480901 (PLoS ONE, 2021).
Where “and” joins values, the source holds several entries; their conditions need not be identical. Equal values may be shown once.

Experiments:
[1] = tested on: LPS-induced lung neutrophilia; experiment: LPS-induced lung neutrophilia: total and neutrophil cell counts in BALF; format: in vivo, BALB/c mice; conditions: for Neutrophils in BALF: % reduction / Total cells/white blood cells in BALF: % reduction / Neutrophils in BALF, Mean / Total cells/white blood cells in BALF, Mean / Neutrophils in BALF, individual mice / Total cells/white blood cells in BALF, individual mice: Experiment 1, LPS; for Neutrophils in BALF, Mean / Total cells/white blood cells in BALF, Mean / Neutrophils in BALF, individual mice / Total cells/white blood cells in BALF, individual mice: BALF 4 h after LPS; for Neutrophils in BALF, individual mice / Total cells/white blood cells in BALF, individual mice: listed as Azi
Procedure: Six-week-old male BALB/c mice (Charles River, Calco, Italy) were singly housed in a temperature-controlled (22°C±2°C) environment with a 12:12-hour light:dark cycle and free access to food and water. Mice were given ≥7 days for acclimation before all procedures. […] One day before the start of experimental procedures, all animals were randomized into 6 groups (n = 8/group). Animal group assignment was not blinded.
LPS lyophilized powder (2 mg; Sigma-Aldrich Chemie GmbH, Munich, Germany) from Escherichia coli (O111:B4) was dissolved in 10 mL cold saline (0.9%; Pliva, Zagreb, Croatia), vortexed, and further diluted by mixing 2 mL of this solution with 2 mL saline to reach a final concentration of 5 μg LPS/50 μL saline. […] Ketamine hydrochloride (Narketan 10) was acquired from Vetoquinol (Bern, Switzerland), and xylazine hydrochloride (Rompun, 2%) was acquired from Bayer (Leverkusen, Germany).
To induce pulmonary neutrophilia, mice in the control group received intranasal (IN) 50 μL saline, and all other animals received 5 μg LPS/50 μL saline IN per mouse.
Tracheostomy was performed, and a Buster cat catheter (1.0 × 130 mm; Kruuse, Langeskov, Denmark), shortened to 3 cm, was clamped into the trachea. The lungs were washed 3 times with cold phosphate-buffered saline (PBS; Sigma-Aldrich Chemie GmbH) in a total volume of 1 mL (0.4, 0.3, and 0.3 mL). The collected BALF samples were centrifuged (1303×g, 5 min, 4°C), and resulting cell pellets were each resuspended in 600 μL PBS. Samples were immediately analyzed for total and differential neutrophil cell counts via automated hematology analyzer (XT-2000iV; Sysmex, Kobe, Japan).
Differences between treated versus vehicle groups were determined using the Mann-Whitney test and were considered statistically significant when P<0.05. Outliers in the analysis of cytokine and chemokine concentrations were identified using the Grubbs test. No criteria were set for inclusion/exclusion of animals during the experiment or data points during the analysis.

J774.2 mouse macrophages = experiment: Cytotoxicity in J774.2 mouse macrophages (adenylate kinase release, ToxiLight); format: cell-based; conditions: J774.2 cells; 100 μM
Procedure: The effect of t est compounds on cell viabilit y of J 774.2 macrophages and human PBMCs […]
was determined b y comp aring th e aden yl ate kinas e signal obtain ed in the p resence of diff er ent concentrations of compounds with those obtained in DMSO (vehicle) control. Signals were […]
divided,and the results were ex pressed as fold-change versus v ehicle con trol .

[2] = tested on: LPS-induced acute lung injury; conditions: pretreatment in LPS-induced acute lung injury models; cited from earlier work
[3] = tested on: TNF-α, IL-6, IL-1β, GM-CSF, CXCL-1, CXCL-2, CCL-2 and MMP-9 in lung tissue; experiment: LPS-induced cytokines, chemokines and MMP-9 in mouse lung homogenates (Luminex, ELISA)
Procedure: After bronchoalveolar lavage, lungs were removed, weighed, snap frozen, and stored at −80°C until analysis. To homogenize the tissue, the frozen lungs were thawed and placed in Precellys CK28 Hard Tissue tubes (BERTIN Instruments, Montigny-le-Bretonneux, France) in 1 mL PBS (Gibco, Life Technologies, Paisley, UK) supplemented with protease inhibitors (Halt™ Protease Inhibitor Cocktail [100×]; Thermo Fisher Scientific, Rockford, IL, USA). A Precellys homogenizer (BERTIN Instruments) was used, shaking at 6800 rpm for three 30-second pulses separated by 15-second pauses. After homogenization, samples were centrifuged at 18,000×g for 10 minutes at 4°C, and the supernatants were collected for analysis.
Concentrations of tumor necrosis factor (TNF)-α, IL-6, granulocyte-macrophage colony-stimulating factor (GM-CSF), chemokine (C-X-C motif) ligand (CXCL)-1, CXCL-2, and chemokine (C-C motif) ligand (CCL)-2 in mouse lung homogenates were analyzed with the Mouse Premixed Multi-Analyte Kit (R&D Systems, Minneapolis, MN, USA) per the manufacturer’s protocol and using a Luminex 200 System (Luminex Corporation, Austin, TX, USA). Cytokine and chemokine concentrations were determined from blank-corrected median fluorescence intensity of each sample via xPONENT® software (Luminex Corporation), interpolating from standard curves generated with a 5-parameter logistic curve-fit.
Mouse Total MMP (matrix metalloprotease)-9 and IL-1β/IL-1F2 DuoSet ELISA (enzyme-linked immunosorbent assay) kits (R&D Systems) were used to measure concentrations of MMP-9 and IL-1β, respectively, in lung homogenates per the manufacturer’s protocols. Absorbance at 450 nm was measured using the SpectraMax i3 (Molecular Devices, San Jose, CA, USA). Concentrations of MMP-9 and IL-1β in samples were determined by interpolation from standard curves.

[4] = all doses (10, 30, 100 mg/kg SC)
[5] = lung homogenate, LPS, 10 mg/kg, individual animal, listed as Azi
[6] = lung homogenate, LPS, 10 mg/kg, mean of 8

CC[C@H]1OC(=O)[C@H](C)[C@@H](O[C@H]2C[C@@](C)(OC)[C@@H](O)[C@H](C)O2)[C@H](C)[C@@H](O[C@@H]2O[C@H](C)C[C@H](N(C)C)[C@H]2O)[C@](C)(O)C[C@@H](C)CN(C)[C@H](C)[C@@H](O)[C@]1(C)O [Azithromycin]
total cell and neutrophil recruitment to the lungs (measured in BALF) ([1]; 10, 30, and 100 mg/kg SC 30 min before intranasal LPS, 4 hours postchallenge, vs vehicle control): significant dose-dependent reductions
Neutrophils in BALF: % reduction ([1]; 10 mg/kg SC): 42%
Total cells/white blood cells in BALF: % reduction ([1]; 10 mg/kg SC): 68%
Neutrophils in BALF, Mean ([1]; 10 mg/kg SC): 3e+08 L⁻¹
Total cells/white blood cells in BALF, Mean ([1]; 10 mg/kg SC): 4.4e+08 L⁻¹
Neutrophils in BALF, individual mice ([1]; 10 mg/kg SC, 10 mg/kg): 3.8e+08 L⁻¹ and 3.6e+08 L⁻¹ and 3e+08 L⁻¹ and 2.9e+08 L⁻¹ and 2.7e+08 L⁻¹ and 8e+07 L⁻¹ and 3.4e+08 L⁻¹
Total cells/white blood cells in BALF, individual mice ([1]; 10 mg/kg SC, 10 mg/kg): 1.5e+08 L⁻¹ and 4.9e+08 L⁻¹ and 5.5e+08 L⁻¹ and 6.2e+08 L⁻¹ and 3.6e+08 L⁻¹ and 5.1e+08 L⁻¹ and 3.8e+08 L⁻¹
Neutrophils in BALF: % reduction ([1]; 30 mg/kg SC): 45%
Total cells/white blood cells in BALF: % reduction ([1]; 30 mg/kg SC): 71%
Neutrophils in BALF, Mean ([1]; 30 mg/kg SC): 2.9e+08 L⁻¹
Total cells/white blood cells in BALF, Mean ([1]; 30 mg/kg SC): 4.4e+08 L⁻¹
Neutrophils in BALF, individual mice ([1]; 30 mg/kg SC, 30 mg/kg): 2.5e+08 L⁻¹ and 5.9e+08 L⁻¹ and 2.3e+08 L⁻¹ and 2.1e+08 L⁻¹ and 4.6e+08 L⁻¹ and 1.7e+08 L⁻¹ and 2e+08 L⁻¹
Total cells/white blood cells in BALF, individual mice ([1]; 30 mg/kg SC, 30 mg/kg): 2.5e+08 L⁻¹ and 3.1e+08 L⁻¹ and 4.1e+08 L⁻¹ and 8.2e+08 L⁻¹ and 4.6e+08 L⁻¹ and 3.8e+08 L⁻¹ and 5.6e+08 L⁻¹
Neutrophils in BALF: % reduction ([1]; 100 mg/kg SC): 57%
Total cells/white blood cells in BALF: % reduction ([1]; 100 mg/kg SC): 95%
Neutrophils in BALF, Mean ([1]; 100 mg/kg SC): 2.3e+08 L⁻¹
Total cells/white blood cells in BALF, Mean ([1]; 100 mg/kg SC): 3.7e+08 L⁻¹
Neutrophils in BALF, individual mice ([1]; 100 mg/kg SC, 100 mg/kg): 3.6e+08 L⁻¹ and 2.2e+08 L⁻¹ and 1.7e+08 L⁻¹ and 1.3e+08 L⁻¹ and 3.4e+08 L⁻¹ and 2.5e+08 L⁻¹ and 1.5e+08 L⁻¹ and 1.9e+08 L⁻¹
Total cells/white blood cells in BALF, individual mice ([1]; 100 mg/kg SC, 100 mg/kg): 2.8e+08 L⁻¹ and 3.1e+08 L⁻¹ and 4.9e+08 L⁻¹ and 3.6e+08 L⁻¹ and 4.4e+08 L⁻¹ and 2.2e+08 L⁻¹ and 5.2e+08 L⁻¹ and 3.3e+08 L⁻¹
cell viability (J774.2 mouse macrophages): reduced
neutrophil recruitment [2]: significantly reduced
TNF-α concentrations in lung homogenate ([3]; 100 mg/kg SC): no significant effect
TNF-α concentrations in lung homogenate ([3]; 10 and 30 mg/kg SC): significant reductions
IL-1β concentrations in lung homogenate [3, 4]: reduced
MMP-9 levels in lung homogenate [3, 4]: not as pronounced as with lefamulin
chemokines and GM-CSF in lung homogenate [3, 4]: significant but not as pronounced
IL-6 concentrations in lung homogenate ([3]; all doses tested (10, 30, 100 mg/kg SC), vs vehicle control): reduced to a lesser extent
IL-1β concentrations in lung homogenate ([3]; lowest dose (10 mg/kg SC)): significant reduction
CCL2 % reduction ([3]; lung homogenate, LPS, 10 mg/kg): 36%
CXCL1 % reduction ([3]; lung homogenate, LPS, 10 mg/kg): 44%
CXCL2 % reduction ([3]; lung homogenate, LPS, 10 mg/kg): 41%
GM-CSF % reduction ([3]; lung homogenate, LPS, 10 mg/kg): 44%
IL-1β % reduction ([3]; lung homogenate, LPS, 10 mg/kg): 13%
IL-6 % reduction ([3]; lung homogenate, LPS, 10 mg/kg): 51%
MMP9 % reduction ([3]; lung homogenate, LPS, 10 mg/kg): 16%
TNFα % reduction ([3]; lung homogenate, LPS, 10 mg/kg): 61%
CCL2 [3, 5]: 4556.27 pg/mL and 3263.22 pg/mL and 1456.64 pg/mL and 3309.90 pg/mL and 1430.47 pg/mL and 5875.00 pg/mL and 1417.32 pg/mL and 3315.08 pg/mL
CXCL1 [3, 5]: 8286.02 pg/mL and 7278.90 pg/mL and 5769.98 pg/mL and 6100.99 pg/mL and 6284.84 pg/mL and 12400.64 pg/mL and 5305.93 pg/mL and 5666.95 pg/mL
CXCL2 [3, 5]: 7643.01 pg/mL and 7085.07 pg/mL and 4631.04 pg/mL and 5712.04 pg/mL and 6677.58 pg/mL and 11079.57 pg/mL and 4412.48 pg/mL and 8631.64 pg/mL
GM-CSF [3, 5]: 139.66 pg/mL and 134.35 pg/mL and 75.54 pg/mL and 114.95 pg/mL and 86.88 pg/mL and 293.40 pg/mL and 92.13 pg/mL and 119.35 pg/mL
IL-1β [3, 5]: 8824 pg/mL and 7408 pg/mL and 8108 pg/mL and 9841 pg/mL and 7312 pg/mL and 9969 pg/mL and 10254 pg/mL and 14453 pg/mL
IL-6 [3, 5]: 703.95 pg/mL and 429.86 pg/mL and 475.85 pg/mL and 521.70 pg/mL and 613.04 pg/mL and 952.23 pg/mL and 337.40 pg/mL and 749.27 pg/mL
MMP9 [3, 5]: 2413 pg/mL and 1880 pg/mL and 2467 pg/mL and 2045 pg/mL and 2015 pg/mL and 1705 pg/mL and 1966 pg/mL
TNFα [3, 5]: 468.82 pg/mL and 365.25 pg/mL and 396.22 pg/mL and 281.21 pg/mL and 385.93 pg/mL and 406.49 pg/mL and 646.25 pg/mL and 400.08 pg/mL
CCL2 Mean [3, 6]: 3078 pg/mL
CXCL1, Mean [3, 6]: 7137 pg/mL
CXCL2, Mean [3, 6]: 6984 pg/mL
GM-CSF Mean [3, 6]: 132 pg/mL
IL-1β Mean [3, 6]: 9521 pg/mL
IL-6 Mean [3, 6]: 598 pg/mL
